Data taken from PubChem BioAssay AID1845219 (Molecular Pharmacology Branch, DTP, NCI, 2023).

Test system: SYO-1 tumor spheroids, viability % test/control
Assay: Anticancer human tumor SYO-1 cell line growth inhibition;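 further: spheroids exposed to agents for 7 days before viability read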;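 on viability, T/C: 100% = DMSO vehicle control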
Settings: spheroids with HUVEC and MSC; for IC50: curve of first compound; for viability, T/C: stronger effect = lower value
Source text: Multicellular complex tumor spheroid response to DNA repair inhibitors in combination with DNA-damaging drugs
This study explores the anticancer activities of DNA-damaging drugs and inhibitors of DNA damage repair, both as single agents and in combinations. Complex tumor spheroids comprised of malignant cells, endothelial cells and mesenchymal stem cells served as an in vitro model for human solid tumors. This model system incorporates physiologically relevant features and patient-derived or established malignant cell lines with clinically relevant genetic alterations from many tumor types. Twenty-six patient-derived or established malignant cell lines were evaluated representing sarcoma, melanoma, small cell lung cancer (SCLC), non-small cell lung cancer (NSCLC), as well as bladder, ovarian and pancreatic cancers. The concentration ranges selected for each drug and investigational agent were based upon clinically achievable concentrations if the clinical Cmax of the agent was known.
Compounds. The drugs and compounds olaparib (NSC753686), talazoparib (NSC767125), berzosertib (NSC777718), elimusertib (NSC800525), nedisertib (NSC802822), VX-984 (NSC792969), AZD-1390 (NSC803789), temozolomide (NSC362856), topotecan (NSC609699), trabectedin (NSC813783), staurosporine (NSC755774), and gemcitabine (NSC613327) were obtained from the National Cancer Institute (NCI) Developmental Therapeutics Program Chemical Repository. The FDA-approved anticancer drug set is available from the Developmental Therapeutics Program at https://dtp.cancer.gov/organization/dscb/obtaining/available_plates.htm. […] The stock solutions were prepared in dimethyl sulfoxide (DMSO, Sigma-Aldrich, St. Louis, MO, cat. D2650) at 400-fold the tested concentration and stored at -70 degrees C. Prior to their use, the stock solutions were diluted in fresh medium and the final DMSO concentration in the assay was 0.25% (v/v). All drugs and investigational agents were tested over a range starting from a high concentration at or near the clinical Cmax and decreasing in half-log increments. If the clinical Cmax for an agent had not been determined, the highest concentration tested was 10 microM.
Cell Lines. The patient-derived cancer cell (PDC) lines: 156681-154-R-J1-PDC, 283228-195-R-J1-PDC, 287954-098-R-J1-PDC, 292921-168-R-J2-PDC, 349418-098-R-PDC, 425362-245-T-J1-PDC, 556581-035-R-J1-PDC, and BL0293-F563-PDC were received from the NCI Patient-Derived Models Repository (PDMR, https://pdmr.cancer.gov). The established cell lines HS-SY-2 (RRID:CVCL_8719), MPNST, and SYO-1 (RRID:CVCL_7146) were obtained from the Sloan Kettering Institute. The alveolar soft parts sarcoma cell line ASPS-1 (RRID:CVCL_S738) was established at the NCI and grown from internal seed stocks. The following established cell lines were purchased from the American Type Culture Collection (ATCC, Manassas, VA): G-401 (ATCC, cat. CRL-1441, RRID:CVCL_0270), SW982 (ATCC, cat. HTB-93, RRID:CVCL_1734), VA-ES-BJ (ATCC, cat. CRL-2138, RRID:CVCL_1785), NCI-H719 (ATCC, cat. CRL-5837, RRID:CVCL_1582), NCI-H196 (ATCC, cat. CRL-5823, RRID:CVCL_1509), NCI-H841 (ATCC, cat. CRL-5845, RRID:CVCL_1595), NCI-H1618 (ATCC, cat. CRL-5879, RRID:CVCL_1480), NCI-H1876 (ATCC, cat. CRL-5902, RRID:CVCL_1503), DMS 114 (ATCC, cat. CRL-2066; RRID:CVCL_1174), NCI-H211 (ATCC, cat. CRL-5824; RRID:CVCL_1529), and SW 1271 (ATCC, cat. CRL-2177, RRID:CVCL_1716). The small cell lung cancer cell line COR-L88 was purchased from Sigma-Aldrich (cat. 92031917-1VL, RRID:CVCL_1141). The non-small cell lung cancer cell lines NCI-H226 (RRID:CVCL_1544) and NCI-H322M (RRID:CVCL_1557) were established at the NCI and grown from internal seed stocks. Pooled donor human umbilical vein endothelial cells (HUVEC, Lonza, cat. CC-2519) and human mesenchymal stem cells (hMSC, Lonza, cat. PT-2501) were purchased from Lonza (Walkersville, MD).
Cell Culture. All cells were maintained in an incubator at 37 degrees C and 5% CO2 with 95% humidity. […]

[1] = second compound 0.003 µM, first compound 0.0316 µM
[2] = second compound 0.003 µM, first compound 0.1 µM
[3] = second compound 0.003 µM, first compound 0.316 µM
[4] = second compound 0.003 µM, first compound 1 µM
[5] = second compound 0.003 µM, first compound 3.16 µM
[6] = second compound 0.003 µM, first compound 10 µM
[7] = second compound 0.00949 µM, first compound 0.0316 µM
[8] = second compound 0.00949 µM, first compound 0.1 µM
[9] = second compound 0.00949 µM, first compound 0.316 µM
[10] = second compound 0.00949 µM, first compound 1 µM
[11] = second compound 0.00949 µM, first compound 3.16 µM
[12] = second compound 0.00949 µM, first compound 10 µM
[13] = second compound 0.03 µM, first compound 0.0316 µM
[14] = second compound 0.03 µM, first compound 0.1 µM
[15] = second compound 0.03 µM, first compound 0.316 µM
[16] = second compound 0.03 µM, first compound 1 µM
[17] = second compound 0.03 µM, first compound 3.16 µM
[18] = second compound 0.03 µM, first compound 10 µM
[19] = second compound 0.0949 µM, first compound 0.0316 µM
[20] = second compound 0.0949 µM, first compound 0.1 µM
[21] = second compound 0.0949 µM, first compound 0.316 µM
[22] = second compound 0.0949 µM, first compound 1 µM
[23] = second compound 0.0949 µM, first compound 3.16 µM
[24] = second compound 0.0949 µM, first compound 10 µM
[25] = second compound 0.3 µM, first compound 0.0316 µM
[26] = second compound 0.3 µM, first compound 0.1 µM
[27] = second compound 0.3 µM, first compound 0.316 µM
[28] = second compound 0.3 µM, first compound 1 µM
[29] = second compound 0.3 µM, first compound 3.16 µM
[30] = second compound 0.3 µM, first compound 10 µM

SMILES	IC50 (second compound 0.003 µM)	IC50 (second compound 0.00949 µM)	IC50 (second compound 0.03 µM)	IC50 (second compound 0.0949 µM)	IC50 (second compound 0.3 µM)	viability, T/C [1]	viability, T/C [2]	viability, T/C [3]	viability, T/C [4]	viability, T/C [5]	viability, T/C [6]	viability, T/C [7]	viability, T/C [8]	viability, T/C [9]	viability, T/C [10]	viability, T/C [11]	viability, T/C [12]	viability, T/C [13]	viability, T/C [14]	viability, T/C [15]	other results
COc1ccc([C@@H](O)c2cc(-c3ncnc4cc(N5CCOCC5)ccc34)c(F)cc2Cl)nn1 + CC[C@@]1(O)C(=O)OCc2c1cc1n(c2=O)Cc2cc3c(CN(C)C)c(O)ccc3nc2-1	1.77 µM	< 0.0316 µM	< 0.0316 µM	< 0.0316 µM	< 0.0316 µM	94.3%	99.1%	94.7%	87.6%	11.8%	2.63%	41.7%	33.1%	44.8%	17.1%	1.57%	0.79%	1.67%	1.43%	1.42%	viability, T/C [16]: 0.87%; viability, T/C [17]: 0.63%; viability, T/C [18]: 0.71%; viability, T/C [19]: 1.2%; viability, T/C [20]: 1.26%; viability, T/C [21]: 1.18%; viability, T/C [22]: 1.01%; viability, T/C [23]: 0.75%; viability, T/C [24]: 0.54%; viability, T/C [25]: 1.43%; viability, T/C [26]: 1.86%; viability, T/C [27]: 1.46%; viability, T/C [28]: 0.88%; viability, T/C [29]: 0.2%; viability, T/C [30]: 0.21%
Cc1cc(C)c(CNC(=O)c2cc(-c3ccc(CN4CCOCC4)cc3)cc3c2cnn3C2CCCC2)c(=O)[nH]1 + CC[C@@]1(O)C(=O)OCc2c1cc1n(c2=O)Cc2cc3c(CN(C)C)c(O)ccc3nc2-1	8.35 µM	< 0.0316 µM	< 0.0316 µM	< 0.0316 µM	< 0.0316 µM	89.3%	90.5%	91.4%	91.9%	80.6%	43.9%	10.4%	9.41%	15.2%	12.5%	8.6%	3.78%	1.69%	1.58%	1.52%	viability, T/C [16]: 1.59%; viability, T/C [17]: 1.68%; viability, T/C [18]: 2.01%; viability, T/C [19]: 1.54%; viability, T/C [20]: 1.74%; viability, T/C [21]: 1.49%; viability, T/C [22]: 1.89%; viability, T/C [23]: 2.19%; viability, T/C [24]: 1.93%; viability, T/C [25]: 1.86%; viability, T/C [26]: 1.8%; viability, T/C [27]: 2.05%; viability, T/C [28]: 2.19%; viability, T/C [29]: 2.23%; viability, T/C [30]: 1.83%
